Assay [1] relates to A. baumannii 2018-006. Type of assay: cell-based. How it is done: (§1) Minimum inhibitory concentrations (MICs) were determined by broth microdilution according to CLSI guidelines in triplicate. Blood agar plates were inoculated with glycerol stocks of E. coli ATCC 25922, E. coli MCR-1 (clinical isolate from Utrecht Medical Centre, NL), E. coli EQAS MCR-2 (clinical isolate from Wageningen University and Research, NL), K. pneumoniae ATCC 11228, K. pneumoniae ATCC 13883, K. pneumonia 2048 (clnical isolate from Vrije Universiteit Amsterdam Medical Centre, NL), K. pneumonia JS-123 (clinical isolate from Utrecht Medical […]
(§2) (clinical isolate from Rijksinstituut voor Volksgezondheid en Milieu, NL), A. baumannii MDR (clinical isolate from Vrije Universiteit Amsterdam Medical Centre, NL), P. aeruginosa ATCC 27853, P. aeruginosa PAO1, P. aeruginosa NRZ-03961 (Reference strain from Das Nationale Referenzzentrum für gramnegative Krankenhauserreger, DE), P. aeruginosa M-120 (clinical isolate from Leiden University Medical Centre, NL) and S. aureus USA300 (clinical isolate from Texas Children's Hospital, USA). E. coli 25922 MCR1 was grown on LB agar supplemented with kanamycin. The inoculated agar plates were then incubated for 16 h at 37°C . Individually grown colonies were subsequently used to inoculate 3 mL aliquots of TSB that were then incubated at 37°C with shaking at 220 rpm. In parallel, the lipopeptide antibiotics to be assessed were serially diluted with Mueller-Hinton broth (MHB) in polypropylene 96-well plates (50 µL in each well).
(§3) Once the OD600 of the bacterial suspensions reached 0.5, the bacteria were diluted with MHB (final concentration 2 × 10^5 CFU mL−1) and added to the microplates containing the test compounds (50 µL to each well, final volume: 100 µL). The well-plates were sealed with an adhesive membrane and after 16 h of incubation at 37°C with shaking at 220 rpm the wells were visually inspected for bacterial growth. MIC values reported are based on three technical replicates and defined as the lowest concentration of the compound that prevented visible growth of bacteria. […]

Assay [2] concerns A. baumannii ATCC 17961. Format: cell-based. How it is done: as §1, §2, §3
For assay [3], the system named is A. baumannii ATCC 17978. Type of assay: cell-based. How it is done: as §1, §2, §3
Assay [4] relates to A. baumannii MDR. Format: cell-based. Particulars: Ab MDR; broth microdilution (CLSI), MHB, 16 h 37 °C, three technical replicates. As for the experimental part:
as §1, §2, §3
In general terms: In broth dilution the organism is exposed to a series of concentrations in liquid medium.

Assay [5] relates to E. coli ATCC 25922 MCR-1. Format: cell-based. Particulars: Ec ATCC 25922 MCR-1; broth microdilution (CLSI), MHB, 16 h 37 °C, three technical replicates. As for the experimental part: as §1, §2, §3
The test system of assay [6] is E. coli ATCC 25922. Type of assay: cell-based. As for the experimental part: as §1, §2, §3
Assay [7] concerns E. coli EQAS MCR-2. Format: cell-based. To be noted: Ec EQAS MCR-2; broth microdilution (CLSI), MHB, 16 h 37 °C, three technical replicates. How it is done:
as §1, §2, §3

Assay [8] concerns E. coli MCR-1 (clinical isolate). Format: cell-based. To be noted: Ec MCR-1; broth microdilution (CLSI), MHB, 16 h 37 °C, three technical replicates. As for the experimental part:
as §1, §2, §3

Assay [9] concerns K. pneumoniae 2048. Type of assay: cell-based. How it is done:
as §1, §2, §3

Assay [10] deals with K. pneumoniae ATCC 11228. Type of assay: cell-based. How it is done: as §1, §2, §3
In assay [11] the test system is K. pneumoniae ATCC 13883. Format: cell-based. As for the experimental part:
as §1, §2, §3

For assay [12], the system named is K. pneumoniae JS-123. Type of assay: cell-based. As for the experimental part:
as §1, §2, §3

Assay [13] concerns P. aeruginosa ATCC 27853. Format: cell-based. How it is done:
as §1, §2, §3

Assay [14] has as its system P. aeruginosa M-120. Type of assay: cell-based. As for the experimental part: as §1, §2, §3
The subject of assay [15] is P. aeruginosa NRZ-03961. Format: cell-based. How it is done: as §1, §2, §3
For assay [16], the system named is P. aeruginosa PAO1. Type of assay: cell-based. As for the experimental part: as §1, §2, §3
Assay [17] has as its system S. aureus USA300. Format: cell-based. As for the experimental part:
as §1, §2, §3

Assay [18] has as its system E. coli ATCC 25922. Kind of assay: Neutropenic mouse thigh infection efficacy study. Type of assay: in vivo, mice (ICR). Particulars: neutropenic mice, E. coli ATCC 25922 thigh infection, 20 mg kg^−1 SC q8h. As for the experimental part:
In vivo tolerability and efficacy studies
Ethical Issues. Animal experiments were performed under UK Home Office Licences P89653310 (tolerability and PK) and PA67E0BAA (thigh efficacy), with local ethical committee clearance.
Animal Strain. Mice used in these studies were supplied by Charles River (Margate UK) and were specific pathogen free. The strain of mice used was ICR (also known as CD1 Mice) which is a well characterized outbred murine strain. Mice (male) were 11-15 g on receipt and were allowed to acclimatise for at least 7 days.
Animal Housing. Mice were housed in sterilised individual ventilated cages exposing the mice at all times to HEPA filtered sterile air. Mice had free access to food and water and had aspen chip bedding (changed at least once weekly). The room temperature was 22°C +/ - 1°C, with a relative humidity of 60% and maximum background noise of 56 dB. Mice were exposed to 12 h light/dark […]
Test compounds. Compound 6 was dissolved in water for injection in which it formed a clear […]
colourless solution. […]
Compound 6 was administered via subcutaneous administration route at 3 8-h […]
The mice used in the tolerability study were naïve and were not immunosuppressed or infected.
Efficacy study. The in vivo efficacy of compound 6 was assessed in a mouse thigh abscess model where both thighs of each mouse were infected with E. coli ATCC 25922
Immunosuppression. […]
Endpoints. One h and 20.5 (planned 25) h post-infection, the clinical condition of all animals was assessed prior to humane euthanasia using pentobarbitone overdose, and the thighs were removed and weighed. Thigh samples were homogenized in 3mL ice cold sterile PBS; the homogenates were quantitatively cultured onto CLED agar and incubated at 37°C for 18 - 24 h before colonies were […]
Data analysis. The data from the culture burdens were analysed using appropriate non-parametric statistical models (Kruskal-Wallis using Conover-Inman to make all pairwise comparisons between groups) with StatsDirect software v. […]

The mark [19] stands for this setting: Ab 2018-006, broth microdilution (CLSI), MHB, 16 h 37 °C, three technical replicates.
Setting [20] is: Ab ATCC 17961, broth microdilution (CLSI), MHB, 16 h 37 °C, three technical replicates.
Where [21] appears, read: Ab ATCC 17978, broth microdilution (CLSI), MHB, 16 h 37 °C, three technical replicates.
[22] abbreviates: Ec ATCC 25922, broth microdilution (CLSI), MHB, 2 × 10^5 CFU/mL, 16 h 37 °C, visual read-out, three technical replicates.
The mark [23] stands for this setting: Kp 2048, broth microdilution (CLSI), MHB, 16 h 37 °C, three technical replicates.
Setting [24] is: Kp ATCC 11228, broth microdilution (CLSI), MHB, 16 h 37 °C, three technical replicates.
[25] abbreviates: Kp ATCC 13883, broth microdilution (CLSI), MHB, 16 h 37 °C, three technical replicates.
[26] abbreviates: Kp JS-123, broth microdilution (CLSI), MHB, 16 h 37 °C, three technical replicates.
[27] abbreviates: Pa ATCC 27853, broth microdilution (CLSI), MHB, 16 h 37 °C, three technical replicates.
The mark [28] stands for this setting: Pa M-120, broth microdilution (CLSI), MHB, 16 h 37 °C, three technical replicates.
[29] abbreviates: Pa NRZ-03961, broth microdilution (CLSI), MHB, 16 h 37 °C, three technical replicates.
[30] abbreviates: Pa PAO1, broth microdilution (CLSI), MHB, 16 h 37 °C, three technical replicates.
Where [31] appears, read: Sa USA300, broth microdilution (CLSI), MHB, 16 h 37 °C, three technical replicates.

These results are taken from publication PMC8943889, “Synthetic studies with the brevicidine and laterocidine lipopeptide antibiotics including analogues with enhanced properties and in vivo efficacy” (Chemical Science, 2022).

Converted amounts (≈) assume the structure as drawn. Where two headings read alike, the source gives them in different places. Positions of bridges follow the written chain, without caps; N, C: chain ends. Non-standard residues stand in square brackets, D forms with d. Residues, ends and D or L forms follow the SMILES beside them. ξ: configuration not given here. *: point of attachment. Hexanoyl(4ξ-Me) = CCC(C)CCC(=O)*; dOrn = NCCC[C@@H](N)C(=O)O; Orn = NCCC[C@H](N)C(=O)O; Dap = NC[C@H](N)C(=O)O

For the compound `CCC(C)CCC(=O)N[C@H](CC(N)=O)C(=O)N[C@H](Cc1ccc(O)cc1)C(=O)N[C@H](Cc1c[nH]c2ccccc12)C(=O)N[C@H](CCCN)C(=O)N[C@@H](CCCN)C(=O)NCC(=O)N[C@H](CCCN)C(=O)N[C@@H](Cc1c[nH]c2ccccc12)C(=O)N[C@H]1CNC(=O)[C@H](CO)NC(=O)CNC(=O)[C@H]([C@@H](C)CC)NC1=O` (stereo partly drawn) [Dap9-Brev (5), Dap9-Brevicidamide] ({Hexanoyl(4ξ-Me)}-[dN][dY][dW][dOrn][Orn]G[dOrn]W[Dap]IGS; lactam 9-C), the MIC (usually the least concentration at which growth counts as inhibited) in assay [1] (setting [19]) is 8 µg/mL (≈ 5.32 µM); in [2] (setting [20]), 4 µg/mL (≈ 2.66 µM); in [3] (setting [21]) it was 16 µg/mL (≈ 10.6 µM); in assay [4] it was 8 µg/mL (≈ 5.32 µM); in assay [5], 16 µg/mL (≈ 10.6 µM); in assay [6] (setting [22]) it was 8 to 16 µg/mL. The MIC in assay [7] is 8 to 16 µg/mL; in assay [8], 8 to 16 µg/mL; in assay [9] (setting [23]), 16 to 32 µg/mL; in assay [10] (setting [24]) it was 16 to 32 µg/mL; in assay [11] (setting [25]), 32 µg/mL (≈ 21.3 µM); in assay [12] (setting [26]), 8 µg/mL (≈ 5.32 µM). In addition, the MIC in assay [13] (setting [27]) was 8 µg/mL (≈ 5.32 µM); in [14] (setting [28]), 16 µg/mL (≈ 10.6 µM); in assay [15] (setting [29]) it was 16 to 32 µg/mL; in [16] (setting [30]), 16 to 32 µg/mL; in assay [17] (setting [31]) it was more than 64 µg/mL.
For polymyxin B [PolyB, reference compound], the minimal inhibitory concentration (MIC) was less than 0.25 µg/mL in assay [1] (setting [19]); less than 0.25 µg/mL in [2] (setting [20]); less than 0.25 µg/mL in assay [3] (setting [21]); less than 0.25 µg/mL in assay [4]; 0.5 µg/mL in assay [6] (setting [22]); 4 µg/mL in [7]. For the same compound, the MIC in assay [8] was 2 to 4 µg/mL; in [9] (setting [23]), 0.5 to 1 µg/mL; in assay [10] (setting [24]) it was less than 0.25 µg/mL; in assay [11] (setting [25]), 0.25 µg/mL; in [12] (setting [26]) it was less than 0.25 µg/mL; in assay [13] (setting [27]), less than 0.25 µg/mL. For the same compound, the minimal inhibitory concentration (MIC) is less than 0.25 µg/mL in [14] (setting [28]), 0.25 to 0.5 µg/mL in [15] (setting [29]), 0.25 to 0.5 µg/mL in [16] (setting [30]) and 64 µg/mL in assay [17] (setting [31]). The “antibacterial effect in thigh infection, compared with Dap9-Lat (6) at 40 mg kg^−1” value in assay [18] was “comparable”.
As to `CC[C@H](C)[C@@H]1NC(=O)[C@@H](NC(=O)[C@H](Cc2c[nH]c3ccccc23)NC(=O)[C@@H](CCCN)NC(=O)CNC(=O)[C@H](CCCN)NC(=O)[C@@H](CCCN)NC(=O)[C@@H](Cc2c[nH]c3ccccc23)NC(=O)[C@@H](Cc2ccc(O)cc2)NC(=O)[C@@H](CO)NC(=O)CCCCCC(C)C)[C@@H](C)NC(=O)CNC(=O)CNC(=O)[C@H](CC(N)=O)NC1=O` [MeDap9-Lat (8), MeDap9-laterocidine], the minimum inhibitory concentration (MIC) came out at 4 µg/mL (≈ 2.49 µM) in [1] (2018-006, 16 h); 2 µg/mL (≈ 1.25 µM) in [2] (ATCC 17961, 16 h); 2 µg/mL (≈ 1.25 µM) in [3] (ATCC 17978, 16 h); 4 µg/mL (≈ 2.49 µM) in [4]; 1 µg/mL (≈ 0.623 µM) in assay [5]; 1 µg/mL (≈ 0.623 µM) in assay [6] (ATCC 25922, 16 h). In addition, the minimal inhibitory concentration (MIC) in [7] is 0.5 µg/mL (≈ 0.312 µM); in assay [8], 0.5 µg/mL (≈ 0.312 µM); in assay [9] (2048, 16 h), 2 µg/mL (≈ 1.25 µM); in assay [10] (ATCC 11228, 16 h), 1 to 2 µg/mL; in assay [11] (ATCC 13883, 16 h) it was 1 to 2 µg/mL; in assay [12] (JS-123, 16 h), 0.5 µg/mL (≈ 0.312 µM). In addition, the MIC in assay [13] (ATCC 27853, 16 h) amounted to 0.5 µg/mL (≈ 0.312 µM); in [14] (M-120, 16 h) it was 1 µg/mL (≈ 0.623 µM); in assay [15] (NRZ-03961, 16 h), 2 µg/mL (≈ 1.25 µM); in assay [16] (PAO1, 16 h) it was 2 µg/mL (≈ 1.25 µM); in assay [17] (USA300, 16 h), 32 µg/mL (≈ 20 µM).
